# Measured values reported in US20080200405A1, “Drug Resistance Reversal In Neoplastic Disease” (priority 2007, published 2008).
# Experiments:
# [1] = tested on: Human whole blood clot formation; details: compound 4 at 1 ug and 10 ug
# [2] = Ocular permeability and retina levels after topical administration; type: in vivo
# [3] = tested on: H2O2-induced angiogenesis in the CAM model; test: H2O2-induced angiogenesis in the CAM model; type: in vivo, chicken; details: for % Inhibition ± SD / Branch pts ± SEM: H2O2 88 μM, 30 ng
# Experimental: (§1) In vivo neovascularization was examined by the method previously described by Auerbach et al. (J. Dev. Biol. 41:391-394 (1974)). Ten-day old chicken embryos were purchased from Spafas, Inc. (Preston, Conn.) and were incubated at 37° C. with 55% relative humidity. In the dark, with the aid of a candling lamp, a small hole was punctured in the shell concealing the air sac with a hypodermic needle. A second hole was punctured in the shell on the broadside of the egg directly over an […] portion of the embryonic membrane, as observed during candling. An artificial air sac was created beneath the second hole by applying gentle vacuum to the first hole using a small rubber squeeze bulb. The vacuum caused the chorioallantoic membrane (CAM) to separate from the shell.
# (§2) A pro-angiogenic agent was added to induce new blood vessel branches on the CAM of 10-day old embryos. Filter disks of #1 filter paper (Whatman International, United Kingdom) were punched using a small puncher and were soaked in 3 mg/mL cortisone acetate (Sigma, St. Louis, Mo.) in a solution (95% ethanol and water). The disks were subsequently air dried under sterile conditions. The disks were then suspended in PBS (Phosphate Buffered Saline) and placed on growing CAMs. Filters treated with TP-H (TEMPOL-H) or TEMPOL and/or H2O2 or TP-H and/or bFGF or VEGF were placed on the first day of the 3-day incubation.
# (§3) The number of vessel branch points contained in a circular region equal to the area of a filter disk was counted for each section. Percent inhibition data are expressed as the quotient of the experimental value minus the negative control value divided by the difference between the positive control value and the negative control value. One image was counted in each CAM preparation, and findings from eight CAM preparations were analyzed for each treatment condition. In addition, each experiment was performed three times. The resulting angiogenesis index is the mean ±SEM (Standard Error of Measurement) of new branch points in each set of treatment. Statistical analysis of blood vessel branching patterns are performed by 1-way analysis of variance (ANOVA) comparing experimental with corresponding control groups. Statistical significance differences are assessed at P value of <0.05.
# TP-H (TEMPOL-H, the hydroxylamine reduced form of the nitroxide 4-hydroxy-2,2,6,6-tetramethylpiperidin-1-yloxy) or TEMPOL (4-hydroxy-2,2,6,6-tetramethylpiperidine-N-oxyl radical) was applied to the CAM model study to determine its respective anti-angiogenesis effects according to the materials and methods provided in Example 1. H2O2 was used to induce angiogensis in the CAM model.
# [4] = tested on: selenite induced cataract; test: Selenite induced cataract in mice; details: mouse, in vivo
# Source text: In addition, as mentioned above, there is no precedent for the prevention of growth factor-induced angiogenesis by either TEMPOL or hydroxylamines.
# [5] = In vitro stability in rat, rabbit, dog, and human plasma (overall statement); type: in vitro ADME; details: 240 minute incubation in plasma
# Experimental: The active metabolite of OT-551 (Cyclopropanecarboxylic acid 1-hydroxy-2,2,6,6-tetramethyl-piperidin-4-yl ester) is TP-H. The objective of this analysis was to determine the in vitro half-life of OT-551 in rat, rabbit, dog, and human plasma under standardized incubation conditions.
# OT-551 was incubated with pooled rat, rabbit, dog, and human plasma for various times under standardized incubation conditions. Pre-labeled tubes containing pooled plasma from rats, rabbits, dogs, and humans were pre-incubated in a shaking 37° C. water bath. A OT-551 solution was added to the tubes at a final concentration of 1000 ng/mL. Time zero samples (n=5) were immediately removed and transferred into tubes containing a stabilizer solution (DTPA, acetylcysteine and ascorbic acid), the LC/MS/MS assay internal standard and methanol. […] The tubes were vortexed, placed on ice, followed by centrifugation. One hundred-μL aliquots of the supernatant were transferred into HPLC sample vials. Additional tubes (n=5 at each time point) were incubated for 5, 10, 20, 30, 60, 120, and 240 minutes at 37° C. and thereafter processed. The amount of OT-551 and TP-H in each incubated sample was quantified using validated LC/MS/MS assays.
# mouse V79 cells = details: cited from earlier work
# [6] = tested on: VEGF-induced angiogenesis in the CAM model; test: VEGF-induced angiogenesis in the CAM model; type: in vivo, chicken; details: for Mean % Inhibition ± SD / Mean Branch points ± SD: VEGF 2 μg/ml
# Experimental: as §1, §2, §3
# TP-H was applied to the CAM model study to determine its respective anti-angiogenesis effects according to the materials and methods described above. VEGF was used to induce angiogenesis in the CAM model.
structure (smiles),measurement,setting,value
"CC1(C)CC(OC(=O)C2CC2)CC(C)(C)N1O.Cl [OT-551, 1-hydroxy-4-cyclopropanecarbonyloxy-2,2,6,6-tetramethylpiperidine hydrochloride]",effect on clot formation with Bevacizumab/Ranibizumab,[1],completely abrogated the clot formation
same,levels in the retina,[2]; after topical administration,good levels in the retina
same,permeability through the cornea,[2]; in vivo,good permeability through the cornea
CC1(C)CC(O)CC(C)(C)N1O [TEMPOL-H],% Inhibition ± SD,[3]; 100 μg,28.0 ± 13.6 %
same,Branch pts ± SEM,[3]; 100 μg,155 ± 14.4
same,% Inhibition ± SD,[3]; 200 μg,32.9 ± 8.4 %
same,Branch pts ± SEM,[3]; 200 μg,151.3 ± 15.3
same,% Inhibition ± SD,[3]; 400 μg,44.7 ± 6.6 %
same,Branch pts ± SEM,[3]; 400 μg,137.2 ± 6.9
same,% Inhibition ± SD,[3]; 800 μg,55.7 ± 7.2 %
same,Branch pts ± SEM,[3]; 800 μg,127.3 ± 6.4
same,inhibition of angiogenesis induced by super-maximal concentrations of H2O2,[3]; in vivo,effectively inhibited
same,prevention of selenite induced cataract,[4],effective
same,stability of TP-H during the incubation period,[5],stable during the 240 minute incubation period
same,radioprotection of mouse V79 cells,mouse V79 cells,did not provide any radioprotection
same,Mean % Inhibition ± SD,[6]; 100 μg,37.6 ± 6.9 %
same,Mean Branch points ± SD,[6]; 100 μg,154.8 ± 7.5
same,Mean % Inhibition ± SD,[6]; 200 μg,42 ± 3.5 %
same,Mean Branch points ± SD,[6]; 200 μg,150 ± 3.8
same,Mean % Inhibition ± SD,[6]; 400 μg,53.3 ± 3.3 %
same,Mean Branch points ± SD,[6]; 400 μg,137.8 ± 3.0
same,Mean % Inhibition ± SD,[6]; 800 μg,70.7 ± 9.1 %
same,Mean Branch points ± SD,[6]; 800 μg,118.8 ± 9.9
same,inhibition of VEGF-induced angiogenesis,[6]; in vivo,dose-dependent inhibition
